ChEMBL document CHEMBL1909046, “DrugMatrix in vitro pharmacology data”

Legend:
[1] = molecular target: T1, Alpha-1A adrenergic receptor (Rattus norvegicus, UniProt P43140); assay: DRUGMATRIX: Alpha-1A adrenergic receptor radioligand binding (ligand: prazosin); type: cell membranes, Wistar, Submaxillary gland, Membrane; conditions: Not Active = under 50% inhibition at 10 µM
T1 sequence (P43140 whole entry): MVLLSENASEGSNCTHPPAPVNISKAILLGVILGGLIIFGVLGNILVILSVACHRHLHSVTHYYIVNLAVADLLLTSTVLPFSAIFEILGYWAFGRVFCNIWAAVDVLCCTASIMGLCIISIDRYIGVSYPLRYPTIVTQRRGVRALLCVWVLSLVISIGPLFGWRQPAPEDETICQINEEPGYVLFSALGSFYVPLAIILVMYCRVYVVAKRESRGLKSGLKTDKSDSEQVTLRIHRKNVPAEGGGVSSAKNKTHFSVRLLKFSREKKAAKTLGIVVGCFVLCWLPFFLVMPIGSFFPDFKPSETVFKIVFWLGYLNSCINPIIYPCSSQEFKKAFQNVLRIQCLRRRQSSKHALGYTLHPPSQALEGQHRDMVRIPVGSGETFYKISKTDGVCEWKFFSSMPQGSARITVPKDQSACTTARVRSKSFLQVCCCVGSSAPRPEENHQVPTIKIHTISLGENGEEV

[2] = molecular target: Beta-2 adrenergic receptor (Homo sapiens, UniProt P07550); assay: DRUGMATRIX: Adrenergic beta2 radioligand binding (ligand: [3H] CGP-12177); type: cell membranes, CHO, Membrane; conditions: cho; Not Active = under 50% inhibition at 10 µM
[3] = molecular target: T2, 3-hydroxy-3-methylglutaryl-coenzyme A reductase (Homo sapiens, UniProt P04035); design: species or system Escherichia coli;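 further: enzyme inhibition assay of HMG-CoA reductase using radiolabeled [14C]HMG-CoA as substrate; in other assays of this panel Not Active means under 50% inhibition at 10 µM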
T2 sequence (P04035 whole entry): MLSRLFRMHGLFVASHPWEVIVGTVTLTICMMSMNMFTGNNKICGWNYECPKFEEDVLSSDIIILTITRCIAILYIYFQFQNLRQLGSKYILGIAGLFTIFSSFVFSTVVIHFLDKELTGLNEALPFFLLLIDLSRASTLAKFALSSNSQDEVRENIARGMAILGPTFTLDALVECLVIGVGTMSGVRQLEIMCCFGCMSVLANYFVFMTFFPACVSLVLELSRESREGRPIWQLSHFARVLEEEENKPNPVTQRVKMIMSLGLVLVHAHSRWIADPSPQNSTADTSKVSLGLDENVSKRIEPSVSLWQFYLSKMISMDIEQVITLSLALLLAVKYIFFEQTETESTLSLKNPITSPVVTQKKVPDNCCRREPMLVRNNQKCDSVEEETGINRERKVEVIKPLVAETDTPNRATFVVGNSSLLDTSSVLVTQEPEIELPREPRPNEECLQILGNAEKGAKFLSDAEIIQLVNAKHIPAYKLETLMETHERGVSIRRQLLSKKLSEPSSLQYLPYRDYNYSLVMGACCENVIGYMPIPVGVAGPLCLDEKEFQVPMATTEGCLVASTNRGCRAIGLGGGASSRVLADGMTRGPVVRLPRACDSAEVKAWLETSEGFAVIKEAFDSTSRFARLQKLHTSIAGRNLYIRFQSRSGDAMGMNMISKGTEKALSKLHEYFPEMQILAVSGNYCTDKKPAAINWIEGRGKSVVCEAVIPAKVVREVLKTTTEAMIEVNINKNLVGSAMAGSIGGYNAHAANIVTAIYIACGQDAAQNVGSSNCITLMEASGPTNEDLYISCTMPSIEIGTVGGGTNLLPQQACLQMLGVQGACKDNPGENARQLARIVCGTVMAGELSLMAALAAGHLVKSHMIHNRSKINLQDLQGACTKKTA

[4] = molecular target: Insulin receptor (Rattus norvegicus, UniProt P15127); type: cell membranes, Wistar, Liver, Membrane; further: in other assays of this panel Not Active means under 50% inhibition at 10 µM
Chain of Insulin receptor (P15127 27-759 limits assumed): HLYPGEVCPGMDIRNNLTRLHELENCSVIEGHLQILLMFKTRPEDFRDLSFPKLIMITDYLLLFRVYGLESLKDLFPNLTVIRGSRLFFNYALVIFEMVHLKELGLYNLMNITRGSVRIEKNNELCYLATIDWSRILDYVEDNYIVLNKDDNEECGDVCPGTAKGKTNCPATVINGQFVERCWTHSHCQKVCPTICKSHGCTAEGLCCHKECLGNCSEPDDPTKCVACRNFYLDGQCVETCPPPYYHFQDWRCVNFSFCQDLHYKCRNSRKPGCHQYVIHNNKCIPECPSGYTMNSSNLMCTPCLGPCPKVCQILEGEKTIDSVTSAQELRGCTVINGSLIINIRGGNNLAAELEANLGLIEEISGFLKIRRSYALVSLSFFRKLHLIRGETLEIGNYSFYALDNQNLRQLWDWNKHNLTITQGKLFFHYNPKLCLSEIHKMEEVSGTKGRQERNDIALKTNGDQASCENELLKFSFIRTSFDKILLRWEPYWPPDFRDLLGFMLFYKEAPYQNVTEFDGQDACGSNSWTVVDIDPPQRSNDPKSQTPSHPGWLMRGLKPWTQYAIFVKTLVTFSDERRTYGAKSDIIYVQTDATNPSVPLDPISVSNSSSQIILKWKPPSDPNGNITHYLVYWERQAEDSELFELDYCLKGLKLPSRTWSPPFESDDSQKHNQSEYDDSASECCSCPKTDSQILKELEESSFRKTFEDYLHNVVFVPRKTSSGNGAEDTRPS
Chain of Insulin receptor (P15127 764-1383 limits assumed): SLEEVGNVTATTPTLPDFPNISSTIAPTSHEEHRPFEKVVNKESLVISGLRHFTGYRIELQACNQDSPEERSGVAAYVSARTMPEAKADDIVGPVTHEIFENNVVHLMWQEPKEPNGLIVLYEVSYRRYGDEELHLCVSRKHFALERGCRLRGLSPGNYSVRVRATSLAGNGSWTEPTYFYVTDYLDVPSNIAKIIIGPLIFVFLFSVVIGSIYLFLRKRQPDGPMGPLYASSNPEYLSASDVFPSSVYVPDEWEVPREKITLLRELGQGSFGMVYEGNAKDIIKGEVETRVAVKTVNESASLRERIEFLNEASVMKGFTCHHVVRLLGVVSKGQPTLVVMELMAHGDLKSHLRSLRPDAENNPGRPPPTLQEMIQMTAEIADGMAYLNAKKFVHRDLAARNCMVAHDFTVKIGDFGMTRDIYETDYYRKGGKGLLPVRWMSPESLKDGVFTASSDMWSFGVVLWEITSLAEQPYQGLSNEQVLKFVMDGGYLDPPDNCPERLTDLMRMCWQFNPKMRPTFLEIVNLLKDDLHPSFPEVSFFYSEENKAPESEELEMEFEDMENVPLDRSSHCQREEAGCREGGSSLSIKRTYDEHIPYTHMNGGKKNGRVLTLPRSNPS

[5] = molecular target: T3, Glucocorticoid receptor (Homo sapiens, UniProt P04150); conditions: hela s3; further: in other assays of this panel Not Active means under 50% inhibition at 10 µM
T3 sequence (P04150 whole entry): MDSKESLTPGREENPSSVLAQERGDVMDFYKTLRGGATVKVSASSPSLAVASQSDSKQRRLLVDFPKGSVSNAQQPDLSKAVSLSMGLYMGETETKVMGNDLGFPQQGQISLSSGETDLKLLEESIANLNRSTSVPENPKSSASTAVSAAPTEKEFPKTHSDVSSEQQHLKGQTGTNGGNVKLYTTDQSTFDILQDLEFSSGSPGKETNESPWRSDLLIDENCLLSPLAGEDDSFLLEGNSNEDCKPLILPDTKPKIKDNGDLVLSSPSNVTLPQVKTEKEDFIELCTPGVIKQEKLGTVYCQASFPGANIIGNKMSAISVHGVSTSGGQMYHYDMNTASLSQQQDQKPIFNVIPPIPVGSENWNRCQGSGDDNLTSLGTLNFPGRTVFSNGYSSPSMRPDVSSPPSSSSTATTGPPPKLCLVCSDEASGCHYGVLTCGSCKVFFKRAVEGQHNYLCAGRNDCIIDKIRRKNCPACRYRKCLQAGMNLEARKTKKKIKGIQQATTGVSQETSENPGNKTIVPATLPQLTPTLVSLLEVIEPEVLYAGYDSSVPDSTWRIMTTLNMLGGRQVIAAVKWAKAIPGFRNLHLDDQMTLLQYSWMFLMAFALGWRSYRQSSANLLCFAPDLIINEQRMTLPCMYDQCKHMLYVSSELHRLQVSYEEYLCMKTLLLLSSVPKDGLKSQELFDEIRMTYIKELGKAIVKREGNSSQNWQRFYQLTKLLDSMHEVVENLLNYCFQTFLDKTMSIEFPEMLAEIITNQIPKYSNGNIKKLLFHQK

C=C(C)[C@H]1Cc2c(ccc3c2O[C@@H]2COc4cc(OC)c(OC)cc4[C@@H]2C3=O)O1 [ROTENONE]
Not Active: IC50 [1] | IC50 [2] | IC50 [3] | IC50 [4] | IC50 [5]

CNS(=O)(=O)Cc1ccc2[nH]cc(CCN(C)C)c2c1
Not Active: IC50 [1] | IC50 [2] | IC50 [3] | IC50 [4] | IC50 [5]

CCCc1nn(C)c2c(=O)[nH]c(-c3cc(S(=O)(=O)N4CCN(C)CC4)ccc3OCC)nc12
Not Active: IC50 [1] | IC50 [2] | IC50 [3] | IC50 [4] | IC50 [5]

Nc1nc2c(c(=O)[nH]1)N(C=O)C(CNc1ccc(C(=O)N[C@@H](CCC(=O)O)C(=O)O)cc1)CN2 (stereo not given in full) [LEUCOVORIN]
Not Active: IC50 [1] | IC50 [2] | IC50 [3] | IC50 [4] | IC50 [5]

C#CCN(C)[C@H](C)Cc1ccccc1 [SELEGILINE]
Not Active: IC50 [1] | IC50 [2] | IC50 [3] | IC50 [4] | IC50 [5]

COc1cc(C(=O)NS(=O)(=O)c2ccccc2C)ccc1Cc1cn(C)c2ccc(NC(=O)OC3CCCC3)cc12 [ZAFIRLUKAST]
Not Active: IC50 [1] | IC50 [2] | IC50 [3] | IC50 [4] | IC50 [5]

STANNOUS FLUORIDE
Not Active: IC50 [1] | Ki [1] | IC50 [2] | Ki [2] | IC50 [3] | Ki [3] | IC50 [4] | Ki [4] | IC50 [5] | Ki [5]

COc1ccc(/C=C/C(=O)Nc2ccccc2C(=O)O)cc1OC
Not Active: IC50 [1] | IC50 [2] | IC50 [3] | IC50 [4] | IC50 [5]
